Format in all cases: functional
Assay [1] addresses T1, Follicle-stimulating hormone receptor (Homo sapiens, UniProt P23945).
T1 sequence (P23945 whole entry): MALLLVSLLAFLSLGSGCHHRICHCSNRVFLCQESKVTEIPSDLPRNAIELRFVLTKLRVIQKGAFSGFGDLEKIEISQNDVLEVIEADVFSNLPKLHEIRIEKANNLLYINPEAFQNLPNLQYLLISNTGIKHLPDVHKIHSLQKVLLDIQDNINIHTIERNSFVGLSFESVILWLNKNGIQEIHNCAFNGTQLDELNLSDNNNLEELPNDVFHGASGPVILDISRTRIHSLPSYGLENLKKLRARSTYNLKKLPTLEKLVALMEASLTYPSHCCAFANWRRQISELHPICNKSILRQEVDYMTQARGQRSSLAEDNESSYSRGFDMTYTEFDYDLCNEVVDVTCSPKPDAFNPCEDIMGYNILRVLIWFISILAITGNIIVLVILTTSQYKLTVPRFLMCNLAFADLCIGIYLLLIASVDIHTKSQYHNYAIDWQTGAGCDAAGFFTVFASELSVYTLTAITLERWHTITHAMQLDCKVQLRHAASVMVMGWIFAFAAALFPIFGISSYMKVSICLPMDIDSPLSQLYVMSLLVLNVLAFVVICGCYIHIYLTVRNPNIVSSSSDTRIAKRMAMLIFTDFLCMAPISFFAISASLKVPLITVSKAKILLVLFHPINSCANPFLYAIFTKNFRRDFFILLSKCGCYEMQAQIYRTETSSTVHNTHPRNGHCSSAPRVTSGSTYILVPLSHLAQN
In words: Agonistic activity in CHO-hFSHR cell-based cAMP accumulation assay. In general terms: Cyclic AMP is a second messenger, typically raised through Gs and lowered through Gi signalling.

Assay [2] concerns the target T1, Follicle-stimulating hormone receptor. Put plainly: Agonistic activity against human follicle stimulating hormone receptor in CHO-hFSHR-luciferase assay.
For assay [3], the target named is T2, Follicle-stimulating hormone receptor (Homo sapiens) (UniProt P23945).
T2 sequence (whole entry): T1 sequence (P23945 whole entry)
In words: Agonistic efficacy in CHO-hFSHR cell-based cAMP accumulation assay relative to FSH(=100%).

Assay [4] concerns the target T1, Follicle-stimulating hormone receptor. Put plainly: Agonistic activity in CHO-hFollicle stimulating hormone receptor cell-based cAMP accumulation assay.

SMILES strings stand for the structures. Where “and” joins values, the source holds several entries; their conditions need not be identical. Equal values may be shown once.

A word on the EC50: it is the concentration at which the effect is half-maximal. Take `CCCCCCCCN1C(=O)[C@H](Cc2ccc(-c3cccc(CN(CCCC)C(C)=O)c3)cc2)N(C)C(=O)[C@@H]1C`: the EC50 is 35 nM in assay [1] and 14 nM in assay [2]. The Efficacy in assay [3] was found to be 57%.

Take `CCCCCCNC(=O)CN1CC(=O)N(C)[C@@H](Cc2ccc(-c3cc(OC)c(OC)c(OC)c3)cc2)C1=O`: in assay [2], the EC50 is 3 nM.

Regarding `CCCCCCCCN1C(=O)[C@H](Cc2ccc(-c3cccc(CN(CCCC)C(=O)NC)c3)cc2)N(C)C(=O)[C@@H]1C`, the EC50 in assay [1] came out at 7.9 nM; in assay [2], 1.2 nM. In assay [3], this compound came in with an Efficacy of 72%.

Compound `CCCCCN1CC(=O)N(C)[C@@H](Cc2ccc(-c3cc(OC)c(OC)c(OC)c3)cc2)C1=O` had an EC50 in assay [2] of 9000 nM.

In assay [2], `CCCCCCNC(=O)CN1CC(=O)N(CC)[C@@H](Cc2ccc(-c3cc(OC)c(OC)c(OC)c3)cc2)C1=O` displayed an EC50 greater than 20000 nM.

In assay [2], `CCCCCCN1C(=O)[C@H](Cc2ccc(-c3cccc(CN(CCCC)C(C)=O)c3)cc2)N(C)C(=O)[C@@H]1C` showed an EC50 of 150 nM.

On to `CCCCCCCCN1C(=O)[C@@H](Cc2ccc(-c3cc(OC)c(OC)c(OC)c3)cc2)N(C)C(=O)[C@H]1C`, for which the EC50 in assay [2] was 1600 nM.

`CCCCCCNC(=O)CN1CC(=O)N(CCC)[C@@H](Cc2ccc(-c3cc(OC)c(OC)c(OC)c3)cc2)C1=O` showed an EC50 in assay [2] greater than 20000 nM.

For `CCCCCCCCN1C(=O)[C@H](Cc2ccc(-c3cc(OC)c(OC)c(OC)c3)cc2)N(C)C(=O)[C@@H]1C`, the EC50 in assay [1] was 32 nM; in assay [2], 13 nM. In assay [3], this compound displayed an Efficacy of 47%.

As for `CCCCCCN1C(=O)[C@H](Cc2ccc(-c3cc(OC)c(OC)c(OC)c3)cc2)N(C)C(=O)[C@@H]1C`, the EC50 in assay [2] is 100 nM.

For `CCCCCCCN1CC(=O)N(C)[C@@H](Cc2ccc(-c3cc(OC)c(OC)c(OC)c3)cc2)C1=O`, a half-maximal response in assay [2] (EC50) required 2300 nM.

For the compound `CCCCCCNC(=O)CN1CC(=O)N[C@@H](Cc2ccc(-c3cc(OC)c(OC)c(OC)c3)cc2)C1=O`, the EC50 in assay [2] is greater than 20000 nM.

For the compound `CCCCCCCCN1C(=O)[C@@H](Cc2ccc(-c3cc(OC)c(OC)c(OC)c3)cc2)N(C)C(=O)[C@@H]1C`, in assay [2], it took 68 nM to reach a half-maximal effect (EC50).

In assay [2], `CCCCCCCCN1CC(=O)N(C)[C@@H](Cc2ccc(-c3cc(OC)c(OC)c(OC)c3)cc2)C1=O` returned an EC50 of 400 nM.

For the compound `CCCCCCCCN1C(=O)[C@H](Cc2ccc(-c3cccc(CN(CCCC)C(=O)OC)c3)cc2)N(C)C(=O)[C@@H]1C`, the EC50 in assay [1] was found to be 31 nM; in assay [2] it was 2.7 nM. Moreover, the Efficacy in assay [3] is 49%.

In assay [2], `CCCCCCCCN1C(=O)[C@H](Cc2ccc(-c3cccc(CN(COC)C(C)=O)c3)cc2)N(C)C(=O)[C@@H]1C` came in with an EC50 of 9.7 nM.

Consider `CCCCCCCCN1CC(=O)N(C)[C@@H](Cc2ccc(-c3cc(C)c(OC)c(C)c3)cc2)C1=O`, for which the response in assay [2] was half-maximal at 1200 nM (EC50).

For `CCCCCCN1CC(=O)N(C)[C@H](Cc2ccc(-c3cc(OC)c(OC)c(OC)c3)cc2)C1=O`, the EC50 in assay [2] is greater than 50000 nM.

Turning to `CCCCCCCCN1C(=O)[C@H](Cc2ccc(-c3cc(OC)c(OC)c(OC)c3)cc2)N(C)C(=O)[C@H]1C`, it took 120 nM to reach a half-maximal effect in assay [2] (EC50).

With `CCCCCCCCCN1CC(=O)N(C)[C@@H](Cc2ccc(-c3cc(OC)c(OC)c(OC)c3)cc2)C1=O`, in assay [2], the EC50 was 900 nM.

Compound `CCCCCCCCN1C(=O)[C@H](Cc2ccc(-c3cccc(CN(COC)C(=O)NC)c3)cc2)N(C)C(=O)[C@@H]1C` registered an EC50 in assay [2] of 3.6 nM.

`CCCCCCCCN1CC(=O)N(C)[C@@H](Cc2ccc(-c3ccc(OC)c(OC)c3)cc2)C1=O` gave an EC50 in assay [2] of 3300 nM.

Consider `CCCCCCCN1C(=O)[C@H](Cc2ccc(-c3cc(OC)c(OC)c(OC)c3)cc2)N(C)C(=O)[C@@H]1C`, for which the results for the EC50 in assay [2] and in assay [4] were 25 nM and 32 nM, respectively. In assay [3], the Efficacy is 54%.

The compound `CCCCCCN1CC(=O)N(C)[C@@H](Cc2ccc(-c3cc(OC)c(OC)c(OC)c3)cc2)C1=O` showed an EC50 in assay [2] of 3000 nM.

Compound `CCCCCNC(=O)CN1CC(=O)N(C)[C@@H](Cc2ccc(-c3cccc(CN(CCCC)C(=O)NC)c3)cc2)C1=O` yielded an EC50 in assay [2] of 1.7 nM.

Take `CCCCCCN1C(=O)[C@H](Cc2ccc(-c3cccc(CN(CCCC)C(=O)OC)c3)cc2)N(C)C(=O)[C@@H]1C`: the EC50 in assay [1] was 48 nM and 59 nM; in assay [2], 8.9 nM.

In the case of `CCCCCCN1C(=O)[C@H](Cc2ccc(-c3cccc(CN(CCCC)C(=O)NC)c3)cc2)N(C)C(=O)[C@@H]1C`, the figures for the EC50 in assay [1] and in assay [2] were 9.5 nM and 7.2 nM, respectively. Also, in assay [3], the Efficacy amounted to 85%.

With `CCCCCCCCN1CC(=O)N(C)[C@@H](Cc2ccc(-c3cc(OC)cc(OC)c3)cc2)C1=O`, in assay [2], the EC50 came to 5000 nM.

Consider `CCCCCCCCN1C(=O)[C@H](Cc2ccc(-c3cccc(CN(COC)C(=O)OC)c3)cc2)N(C)C(=O)[C@@H]1C`, for which the EC50 in assay [2] stood at 1.8 nM.
